Data reported in patent publication US20250197368A1 (priority 2020, published 2025).
Where “and” joins values, the source holds several entries; their conditions need not be identical. Equal entries are not always repeated.

How the values were obtained:
[1] = system: rat brain benzodiazepine binding sites on GABAAR; assay: Rat brain receptor occupancy assay ([3H]flumazenil binding); type: in vivo; settings: for occupancy of rat brain GABAA receptors (benzodiazepine binding sites): mean±SEM
Experimental: The occupancy of rat brain benzodiazepine binding sites on GABAAR by compound was measured by its ability to inhibit the ex vivo binding of [^3H]Ro15-1788 ([^3H] flumazenil) in brain samples from rats dosed with the test compound.
Male Sprague Dawley rats (c. 200-300 g) were used for the studies. All animals were acclimatized 5-7 days before dosing and were handled and weighed prior to treatments.
Rats (3 to 6 per group) were dosed p.o. with either the vehicle or the test compound suspended in vehicle (doses of 0.1 to 10 mg/kg) at a volume of 5 mL per kg of body weight. To block all benzodiazepine binding sites and therefore define the level of non-specific binding of [^3H]Ro15-1788, a separate group of animals received a dose of 5 mg/kg p.o. of bretazenil (5 mL/kg) made up in 70% PEG, 30 minutes before the animals were killed.
At predetermined time intervals, animals were culled via stunning and cervical dislocation. Brain tissues were harvested promptly, and each left and right hemisphere were snap frozen and stored at −80° C.
On the day of the brain samples analysis, each left hemisphere was weighed and homogenized in 8 volumes of ice-cold 10 mM potassium phosphate buffer (pH 7.4). 300 μL of the mixture was further diluted by adding it to a tube containing 1050 μL of assay buffer and [^3H] flumazenil further added to make a total volume of 1500 μL and achieve a final concentration of 4 nM, mixing immediately and incubating on ice.
Following 20 seconds incubation time, the sample was rapidly filtered through Whatman GF/B filter in triplicates (500 μL/filter) using a vacuum filtration manifold. The filters were subsequently washed with 10 mL of ice cold 50 mM Tris buffer (pH 7.4) and then placed into scintillation vials containing scintillation fluid. Filter-bound radioactivity was counted on a TriCarb2900 scintillation counter.
In each experiment, the value of nonspecific binding defined using bretazenil was subtracted from all groups to give values of specific binding.
The percent GABAAR occupancy of the test compound at a specific dose and treatment time was calculated as the percentage by which the specific binding in the vehicle treated group was inhibited by the drug. Therefore, the % occupancy of the modulator in drug-treated animals was expressed as: 100−((Average test compound−Average bretazenil)/(Average vehicle−Average Bretazenil)*100) where ‘average test compound’, ‘average bretazenil’ and ‘average vehicle’ are the average counts in test compound-, bretazenil- and vehicle-treated animals, respectively.

[2] = biological target: human α3β3γ2 GABAARs (benzodiazepine site) (Homo sapiens (Human), UniProt P18507+P34903); assay: In vitro radioligand binding assay ([3H]Ro15-1788 displacement), α3-GABAAR Ki; settings: L(tk-) cell membranes, 4 nM [3H]Ro15-1788
Procedure, shortened: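 Ki derived via Cheng-Prusoff from IC50 for displacement of 4 nM [3H]Ro15-1788 (Kd from saturation binding), with 1-3 μM TP003 defining nonspecific binding. Incubation lasted 1 h at 4° C on membranes of induced L(tk−) cells stably transfected with the human subunits; detection by filtration and scintillation counting.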

SMILES	occupancy of rat brain GABAA receptors (benzodiazepine binding sites) ([1]; 10 mg/kg p.o.)	occupancy of rat brain benzodiazepine binding sites, dose dependence ([1]; doses 0.1 to 10 mg/kg p.o.)	Ki [2]	occupancy of rat brain benzodiazepine binding sites, dose dependence ([1]; doses 0.3 to 10 mg/kg p.o.)	occupancy of rat brain GABAA receptors (benzodiazepine binding sites) ([1]; 1 mg/kg p.o.)
CCCNC(=O)c1c(N)c2cccc(-c3cnccc3OC)c2[nH]c1=O [Example 17, 4-Amino-8-(4-methoxy-3-pyridyl)-2-oxo-N-propyl-1H-quinoline-3-carboxamide]	101+0.5% and 101±0.5%	dose-dependent	8.74 nM		
CCCNC(=O)c1c(N)c2cccc(-c3cnc(C)cc3OC)c2[nH]c1=O [Example 18, 4-Amino-8-(4-methoxy-6-methyl-3-pyridyl)-2-oxo-N-propyl-1H-quinoline-3-carboxamide]			27.9 nM	dose-dependent	
CCCNC(=O)c1c(N)c2cccc(-c3nc(C)ncc3F)c2[nH]c1=O [Example 40, 4-Amino-8-(5-fluoro-2-methyl-pyrimidin-4-yl)-2-oxo-N-propyl-1H-quinoline-3-carboxamide]		dose-dependent	5.06 nM		97.3±2.0%
